# Results: patent US4919932A, “Pharmaceutical formulation for the treatment of bacterial infections” (priority 1986, dated 1990)
# Read-outs that look alike come from different tables or passages of the source.
# What was measured:
# Kl. pneu. 1976E = assay: MIC against Kl. pneu. 1976E; type: cell-based
# Citrob. 2901 = assay: MIC against Citrob. 2901
# Strept. D 21777 = assay: MIC against Strept. D 21777; type: cell-based
# Staph. 22130 = assay: MIC against Staph. 22130; type: cell-based; settings: clinical isolate resistant to the cephalosporin
# Strept. D 26777 = assay: MIC against Strept. D 26777; type: cell-based
# Staph. SG 511 = assay: MIC against Staph. SG 511; type: cell-based
# B. fragilis 960 = assay: MIC against B. fragilis 960; type: cell-based; settings: Bacteroides fragilis, anaerobic
# Staph. 285 = assay: MIC against Staph. 285; type: cell-based
# B. distasonis 1366 = assay: MIC against B. distasonis 1366; type: cell-based; settings: Parabacteroides distasonis
# Cl. tetani 19406 = assay: microbe, parasite or virus in culture; type: cell-based; settings: Clostridium tetani
# Ent. cl. P99 = assay: MIC against Ent. cl. P99; type: cell-based; settings: clinical isolate resistant to the cephalosporin
# Citrob. 82 Cull. = assay: MIC against Citrob. 82 Cull.; type: cell-based
# Ent. cl. M 423 = assay: MIC against Ent. cl. M 423; type: cell-based; settings: clinical isolate resistant to the cephalosporin
# B. thetaiotaomicron 123 = assay: MIC against B. thetaiotaomicron 123; type: cell-based; settings: Bacteroides thetaiotaomicron, anaerobic
# Staph. 789 = assay: MIC against Staph. 789; type: cell-based; settings: clinical isolate resistant to the cephalosporin
# Ent. cl. 2240 Cull. = assay: MIC against Ent. cl. 2240 Cull.; type: cell-based
# Ent. cl. M. 447 = assay: MIC against Ent. cl. M. 447
# B. fragilis 18125 = assay: MIC against B. fragilis 18125; type: cell-based; settings: Bacteroides fragilis, anaerobic
# Sph. varius 5262 = assay: MIC against Sph. varius 5262; type: cell-based; settings: Fusobacterium varium, anaerobic
# E. coli 2139E = assay: MIC against E. coli 2139E; type: cell-based; settings: Escherichia coli
# B. vulgatus 1446 = assay: MIC against B. vulgatus 1446; type: cell-based; settings: Phocaeicola vulgatus, anaerobic
# Staph. 503 = assay: MIC against Staph. 503; type: cell-based
# B. fragilis 312 = assay: MIC against B. fragilis 312; type: cell-based; settings: Bacteroides fragilis, anaerobic
# Kl. aerog. 1082E = assay: MIC against Kl. aerog. 1082E; type: cell-based
# B. fragilis 17390 = assay: MIC against B. fragilis 17390; type: cell-based; settings: Bacteroides fragilis, anaerobic
# Strept. faecium D = assay: MIC against Strept. faecium D; type: cell-based; settings: Enterococcus faecium, clinical isolate resistant to the cephalosporin
# B. ovatus 103 = assay: MIC against B. ovatus 103; type: cell-based; settings: Bacteroides ovatus, anaerobic
SMILES,MIC (Kl. pneu. 1976E) [µg/mL],MIC (Citrob. 2901) [µg/mL],MIC (Strept. D 21777) [µg/mL],MIC (Staph. 22130) [µg/mL],MIC (Strept. D 26777) [µg/mL],MIC (Staph. SG 511) [µg/mL],MIC (B. fragilis 960) [µg/mL],MIC (Staph. 285) [µg/mL],MIC (Cl. tetani 19406) [µg/mL],MIC (Ent. cl. P99) [µg/mL],MIC (Citrob. 82 Cull.) [µg/mL],MIC (Ent. cl. M 423) [µg/mL],MIC (B. thetaiotaomicron 123) [µg/mL],MIC (Staph. 789) [µg/mL],MIC (Ent. cl. 2240 Cull.) [µg/mL],MIC (Ent. cl. M. 447) [µg/mL],MIC (B. fragilis 18125) [µg/mL],MIC (Sph. varius 5262) [µg/mL],MIC (E. coli 2139E) [µg/mL],MIC (B. vulgatus 1446) [µg/mL],also measured
"CC(O)C1C(=O)N2C(C(=O)O)=C(Oc3ccc(C(N)=O)cc3)SC12 (stereo not drawn) [(1), sodium 5R,6S-6-(1R-hydroxyethyl)-3-(4-carbamoyl-phenoxy)-7-oxo-4-thia-1-azabicyclo[3.2.0]hept-2-ene-2-carboxylate]",1,8,8,2,8,0.062,0.125,0.062,0.25,2,1,4,0.125,4,2,16,0.25,0.25,1,0.125,"MIC (B. distasonis 1366; B. distasonis 1366, read-out: MIC): 0.25 µg/mL; MIC (Staph. 503): 0.062 µg/mL; MIC (B. fragilis 312): 0.125 µg/mL; MIC (Kl. aerog. 1082E): 0.5 µg/mL; MIC (B. fragilis 17390): 0.25 µg/mL; MIC (Strept. faecium D): 8 µg/mL; MIC (B. ovatus 103): 0.125 µg/mL"
CO/N=C(\C(=O)N[C@@H]1C(=O)N2C(C(=O)O)=C(COC(C)=O)CS[C@H]12)c1csc(N)n1 [(2)],0.062,64,64,32,64,2,16,2,8,64,2,64,64,64,0.062,64,2,64,0.031,64,MIC (B. distasonis 1366; 1366): 0.125 µg/mL; MIC (Staph. 503): 2 µg/mL; MIC (B. fragilis 312): 128 µg/mL; MIC (Kl. aerog. 1082E): 1 µg/mL; MIC (B. fragilis 17390): 8 µg/mL; MIC (Strept. faecium D): 64 µg/mL; MIC (B. ovatus 103): 64 µg/mL
